{"source": "patent US8946275B2", "about": "“Treatment of cancer using hypoxia activated prodrugs” (Threshold Pharmaceuticals, Inc., priority 2008, dated 2015)", "key": {"Solubility of TH-302": {"assay": "Solubility of TH-302", "format": "physicochemical", "details": "organic solvent or mixture"}, "[1]": {"tested_on": "PC-3 human prostate cancer cells", "assay": "PC-3 ectopic xenograft, TH-302/docetaxel dosing schedules", "format": "in vivo, nude mice", "details": "single agent, TH-302 150 mg/kg ip once or Docetaxol 10 mg/kg iv once"}, "[2]": {"assay": "Phase 1 clinical trial of TH-302 monotherapy, dose escalation", "format": "in vivo, human", "procedure": "A Phase 1 clinical trial was conducted with TH-302. The starting dose was 7.5 mg/m^2 IV over 30-60 min administered once weekly for 3 weeks of a 4 week cycle. A modified accelerated titration design was used."}, "[3]": {"tested_on": "small cell lung cancer (SCLC)", "assay": "TH-302 monotherapy in patients with lung cancer (SCLC)", "format": "in vivo, human", "procedure": "Eight subjects with SCLC have been treated with TH-302 monotherapy at initial doses of 480 mg/m^2 to 670 mg/m^2 as part of a 3 consecutive week dosing regimen repeated every 4 weeks (this excludes one subject dosed at 60 mg/m^2 during the initial dose escalation). RECIST tumor assessments were performed initially for seven subjects. […] One of the seven subjects continued on-study for additional cycles of treatment.\nIn this study, a person suffering from a lung cancer (a refractory small cell lung cancer) that had metastasized to liver was treated as follows. Lyophilized TH-302 was diluted with D5W and administered to the patient at an amount of 480 mg/m^2, according to the following 4 week dosing cycle: TH-302 was administered once every week for 3 weeks, on days 1, 8, and 15, followed by a week of no TH-302 administration. The patient was administered 2 cycles (i.e. 6 doses) of TH-302, and the lung and liver cancers assessed by a computed tomography (or CT) scan. […] LDH had decreased 72%, and liver function tests had normalized."}, "HT29 colon cancer": {"tested_on": "HT29 colon cancer", "assay": "HT-29 ectopic tumor model, TH-302 with 5FU", "format": "in vivo, nude mice"}, "Calu6 NSCLC": {"tested_on": "Calu6 NSCLC", "assay": "Calu-6 ectopic tumor model, TH-302 with doxorubicin", "format": "in vivo, nude mice", "details": "Dox 4 mg/kg IV Q7Dx2; TH-302 50 mg/kg IP QDx5/wkx2wks; alone or combined"}, "[4]": {"tested_on": "HT1080 human fibrosarcoma cells", "assay": "HT1080 ectopic xenograft, TH-302/doxorubicin dosing schedules", "format": "in vivo, nude mice", "details": "single agent, TH-302 100 mg/kg ip 1/wkx2wks or Dox 4 mg/kg iv 1/wkx2wks", "procedure": "(§1) Anti-tumor activity was evaluated by tumor growth delay (TGD) and tumor growth inhibition (TGI). Body weight change, gross and microscopic assessment of tissue changes, and hematologic assays served for toxicity assessment. Testing in these models was conducted generally as follows. 1×10^6 (H460 human non-small cell lung cancer or HT1080 human fibrosarcoma cells) or 3×10^6 (PC-3 human prostate cancer cells) were implanted in the subcutaneous space of the right flank to obtain ectopic xenograft models. Randomization and dosing was initiated when tumors reached a certain size (100-150 mm^3). API grade of TH-302 was used in all experiments while docetaxel, gemcitabine, cisplatin, pemetrexed, and doxorubicin were purchased from commercial sources.\nThe H460 cells were prepared in 30% Matrigel and 70%. RPMI1640. Mice were anesthetized by isoflurane and were implanted subcutaneously with 1×10^6 cells (in 200 μl) at the flank position. We selected 110 mice bearing similar size tumors (˜100 mm^3) for the study. Mice bearing similar tumor size were randomly assigned into different groups. Treatment started on day 1 (7 days after tumor implantation) except as noted. TH-302 was administered intraperitoneally (IP) at 150 mg/kg, and docetaxel was administered intravenously (IV) at 10 mg/kg. Animals were observed daily and tumor measurements and body weights recorded twice weekly.\nIn a study conducted substantially as described above except the cells implanted were HT1080 human fibrosarcoma cells and 1×10^6 cells were implanted and mice were randomized into separate groups when their […]"}, "[5]": {"tested_on": "H460 human non-small cell lung cancer", "assay": "H460 ectopic xenograft, TH-302/docetaxel dosing schedules", "format": "in vivo, nude mice", "details": "single agent, TH-302 100 mg/kg ip once or Docetaxol 10 mg/kg iv once", "procedure": "as §1\nThe H460 cells were prepared in 30% Matrigel and 70%. RPMI1640. Mice were anesthetized by isoflurane and were implanted subcutaneously with 1×10^6 cells (in 200 μl) at the flank position. We selected 110 mice bearing similar size tumors (˜100 mm^3) for the study. Mice bearing similar tumor size were randomly assigned into different groups. Treatment started on day 1 (7 days after tumor implantation) except as noted. […] Animals were observed daily and tumor measurements and body weights recorded twice weekly."}, "[6]": {"details": "480-670 mg/m^2, weekly x3 every 4 weeks, seven subjects assessed"}, "[7]": {"details": "one refractory SCLC patient, 480 mg/m^2, 2 cycles"}, "[8]": {"details": "5-FU 50 mg/kg IV Q3Dx4, TH-302 150 mg/kg IP Q7Dx3, alone or combined"}, "[9]": {"details": "TH-302 100 mg/kg IP Q3Dx5, alone or + 5-FU 50 mg/kg IV Q3Dx4"}}, "note": "Where two headings read alike, the source gives them in different places."}
{"smiles": "Cn1c(COP(=O)(NCCBr)NCCBr)cnc1[N+](=O)[O-]", "note": "[TH-302, (2-bromoethyl)({[(2-bromoethyl)amino][(2-nitro-3-methylimidazol-4-yl)methoxy]phosphoryl})amine]", "values": [{"measurement": "solubility", "setting": "Solubility of TH-302; ethanol, even at higher temperatures, read-out: Highest solubility of TH-302 in ethanol", "value": "~80", "unit": "mg/mL"}, {"measurement": "solubility", "setting": "Solubility of TH-302; ethanol/TWEEN 80 or ethanol/TWEEN 80/DMA, depending on the ratio, read-out: Solubility of TH-302", "value": "≤ 300", "unit": "mg/mL"}, {"measurement": "Days to 500 mm^3", "setting": "[1]", "value": 25, "unit": "days"}, {"measurement": "T/C", "setting": "[1]", "value": 48.7, "unit": "%"}, {"measurement": "TGD500, Days (vs. vehicle)", "setting": "[1]", "value": 9, "unit": "days"}, {"measurement": "TGI", "setting": "[1]", "value": 51.3, "unit": "%"}, {"measurement": "Tn (tumor volume on Day n)", "setting": "[1]; in mm³", "value": 559.95}, {"measurement": "Dose limiting toxicity (DLT)", "setting": "[2]; 575 mg/m^2 weekly x3 of 4 week cycle", "value": "five of the six patients did not exhibit a DLT"}, {"measurement": "Dose limiting toxicity (DLT)", "setting": "[2]; 670 mg/m^2 weekly x3 of 4 week cycle", "value": "Two of five patients"}, {"measurement": "Dose limiting toxicity", "setting": "[2]; 940 mg/m^2 once every three weeks", "value": "two of six subjects have had a dose limiting toxicity"}, {"measurement": "Patients with stable disease", "setting": "[2]; Phase 1 monotherapy, all doses", "value": 16, "unit": "patients"}, {"measurement": "Dose limiting toxicities", "setting": "[2]; dose escalation study, monotherapy", "value": "mucositis with one grade 3 event involving the oral mucosa and one grade 3 event involving the gastrointestinal mucosa"}, {"measurement": "Hematologic toxicity", "setting": "[2]; monotherapy", "value": "mild and limited"}, {"measurement": "Skin and mucosal toxicity", "setting": "[2]; monotherapy", "value": "skin and mucosal toxicity was common at doses above 240 mg/m^2"}, {"measurement": "MTD", "setting": "[2]; once every three week dosing", "value": 670, "unit": "mg/m^2"}, {"measurement": "MTD", "setting": "[2]; once per week for three weeks of a four week cycle", "value": 575, "unit": "mg/m^2"}, {"measurement": "Partial responses (RECIST)", "setting": "[3]; [6]", "value": "Two of seven subjects"}, {"measurement": "Stable disease (RECIST)", "setting": "[3]; [6]", "value": "three of these same seven subjects"}, {"measurement": "Decrease in sum of the longest diameters [SLD] of target lesions", "setting": "[3]; [7]", "value": 44, "unit": "%"}, {"measurement": "LDH decrease", "setting": "[3]; [7]", "value": 72, "unit": "%"}, {"measurement": "Reduction in area of cancer in lung and liver", "setting": "[3]; [7]", "value": "over 50%"}, {"measurement": "Response", "setting": "[3]; three other patients with lung cancer (one NSCLC, 2 SCLC)", "value": "stable disease"}, {"measurement": "Days to 500 mm^3", "setting": "HT29 colon cancer; [8]", "value": 28, "unit": "days"}, {"measurement": "Days to 1000 mm^3", "setting": "HT29 colon cancer; [8]", "value": 46, "unit": "days"}, {"measurement": "T/C", "setting": "HT29 colon cancer; [8]", "value": 48.4, "unit": "%"}, {"measurement": "TGD500, Days (vs. vehicle)", "setting": "HT29 colon cancer; [8]", "value": 6, "unit": "days"}, {"measurement": "TGD1000, Days (vs. vehicle)", "setting": "HT29 colon cancer; [8]", "value": 14, "unit": "days"}, {"measurement": "TGI", "setting": "HT29 colon cancer; [8]", "value": 51.6, "unit": "%"}, {"measurement": "Tn (tumor volume on Day n)", "setting": "HT29 colon cancer; [8]", "value": 565.70}, {"measurement": "Days to 500 mm^3", "setting": "HT29 colon cancer; [9]", "value": 29, "unit": "days"}, {"measurement": "Days to 1000 mm^3", "setting": "HT29 colon cancer; [9]", "value": 41, "unit": "days"}, {"measurement": "T/C", "setting": "HT29 colon cancer; [9]", "value": 52.0, "unit": "%"}, {"measurement": "TGD500, Days (vs. vehicle)", "setting": "HT29 colon cancer; [9]", "value": 7, "unit": "days"}, {"measurement": "TGD1000, Days (vs. vehicle)", "setting": "HT29 colon cancer; [9]", "value": 9, "unit": "days"}, {"measurement": "TGI", "setting": "HT29 colon cancer; [9]", "value": 48.0, "unit": "%"}, {"measurement": "Tn (tumor volume on Day n)", "setting": "HT29 colon cancer; [9]", "value": 580.55}, {"measurement": "Days to 500 mm^3", "setting": "Calu6 NSCLC", "value": 29, "unit": "days"}, {"measurement": "Days to 1000 mm^3", "setting": "Calu6 NSCLC", "value": 39, "unit": "days"}, {"measurement": "T/C", "setting": "Calu6 NSCLC", "value": 59.2, "unit": "%"}, {"measurement": "TGD500, Days (vs. vehicle)", "setting": "Calu6 NSCLC", "value": 11, "unit": "days"}, {"measurement": "TGD1000, Days (vs. vehicle)", "setting": "Calu6 NSCLC", "value": 8, "unit": "days"}, {"measurement": "TGI", "setting": "Calu6 NSCLC", "value": 40.8, "unit": "%"}, {"measurement": "Tn (tumor volume on Day n)", "setting": "Calu6 NSCLC", "value": 695.67}, {"measurement": "Days to 500 mm^3", "setting": "[4]", "value": 22, "unit": "days"}, {"measurement": "T/C", "setting": "[4]", "value": 25.3, "unit": "%"}, {"measurement": "TGD500, Days (vs. vehicle)", "setting": "[4]", "value": 10, "unit": "days"}, {"measurement": "TGI", "setting": "[4]", "value": 74.7, "unit": "%"}, {"measurement": "Tn (tumor volume on Day n)", "setting": "[4]", "value": 334.66}, {"measurement": "Days to 500 mm^3", "setting": "[5]", "value": 21, "unit": "days"}, {"measurement": "Days to 1000 mm^3", "setting": "[5]", "value": 31, "unit": "days"}, {"measurement": "T/C", "setting": "[5]", "value": 42.5, "unit": "%"}, {"measurement": "TGD500, Days (vs. vehicle)", "setting": "[5]", "value": 8, "unit": "days"}, {"measurement": "TGD1000, Days (vs. vehicle)", "setting": "[5]", "value": 11, "unit": "days"}, {"measurement": "TGI", "setting": "[5]", "value": 57.5, "unit": "%"}, {"measurement": "Tn (tumor volume on Day n)", "setting": "[5]; in mm³", "value": 531.74}]}
